From US20180228728A1, “DOSAGE FORM FOR ADMINISTRATION OF OPIOID ANTAGONISTS” (priority 2017, published 2018)

System: cultured human gingival tissues
Format: in vitro ADME
Settings: as excipient in naloxone ODF
Experimental: Each ODF sample was die-cut into 1 inch (2.54 cm) diameter discs (area, 5.067 cm^2). To simulate the oral mucosa, an in vitro oral mucosa 3D model produced from primary human gingival keratinocytes was used (SkinAxis, LLC, North Brunswick, N.J., USA). Briefly, the cultured human gingival tissues were incubated in 6-well plates at 37° C. in a CO2 incubator. To prepare the receiver fluid, 0.3 mL of prewarmed phosphate buffered solution at pH 6.8 was pipetted into each well. Next, 0.5 mL of donor solution or the die-cut discs were placed onto the tissues. The plates were returned to the incubator for 15 minutes. The tissues were moved to the next wells and the receiver media was collected. This was repeated for the remaining time points. The receiver media was analyzed by HPLC in a 5 μm, 4.6×50 mm KINETEX C18 column (Phenomenex, Inc., Torrance, Calif., USA) using art standard protocols. Briefly, the mobile phase comprised 50 mM NH4Ac/Acetonitrile at 88/22. The flow rate was 1.0 mL/min and the column temperature was about 40° C. with a UV of 220 nm and a retention time of 1.8 min.

SMILES: CCCCCCCC/C=C\CCCCCCCCO [oleyl alcohol, Oleyl alcohol]
- effect of permeation enhancer on permeation percentage of the naloxone: increased the permeation percentage of the naloxone
